# Results from the METLIN SMRT retention time set (Domingo-Almenara et al. 2019).
# Assay: gradient 5% acetonitrile 3 min, to 50% in 2 min, to 85% in 15 min, held 3 min, 100 µL/min
# Details: column: Zorbax Extend-C18 2.1 x 50 mm; eluents: water / acetonitrile, 0.1% formic acid
# Procedure, shortened: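 Retention time was recorded from adduct peaks, which were picked computationally and each inspected manually. Pure standards ran in mixtures of ~100 molecules on HPLC coupled to a quadrupole time-of-flight mass spectrometer, in positive and negative ionization mode, through a Zorbax Extend-C18 column (2.1 × 50 mm, 1.8 μm) at 100 μL/min. Eluents were water and acetonitrile, each with 0.1% formic acid.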
row,SMILES,RP-LC retention time [s]
1,Cc1noc(/C=C/c2ccc(S(=O)(=O)N3CCCCC3)s2)c1NC(=O)C1CC1,901
2,Cn1cccc1-c1cc2n(n1)CCC(=O)N2CCCC(=O)NCc1cccc(Cl)c1,804
3,CCCCn1cc(S(=O)(=O)Nc2cc(C)ccc2F)c2cccnc21,754
4,COc1ccc(C2Cn3nnc(C(=O)NC4CCCCCC4)c3CO2)cc1 (stereo not given),1040
5,O=C(NCCCN1CCOCC1)C1CCN(c2nc3cccnc3s2)CC1,568
6,CN1CCN(c2cc(C(=O)O)c3cc(NC(=O)C(C)(C)C)ccc3n2)CC1,578
7,Cc1c(C(=O)NCC(C)C)cnn1-c1cc(-c2nc(C(C)(C)C)no2)ccn1,1150
8,CCC1CCCCN1C(=O)c1cnc2nc(C)ccc2c1Nc1cc(OC)cc(OC)c1 (stereo not given),674
9,COc1ccccc1N1CCN(c2cc(SCC(=O)NCc3ccccc3)ncn2)CC1,823
10,Cc1ccc(-c2cc(-c3cc(-c4ccc(C)cc4C)n[nH]3)[nH]n2)c(C)c1,1070
11,CCN1CCN(c2nc(F)c(F)c(S(=O)(=O)CCNc3cccc4ccccc34)c2F)CC1,697
12,CCOc1ccc(Nc2c(-c3ccc(C(=O)O)cc3)nc3cnccn23)cc1,729
13,COc1ccc(C(=O)NC2(c3nc(C)no3)CCCCC2)c(C)c1,855
14,O=C(c1ccccc1F)N1CCc2nc(-c3ccccc3)ncc2C1,883
15,Cn1nc(C(=O)N2CCCC2)c2c1CCN(C(=O)CCC(=O)NCCN1CCCCC1)C2,574
16,O=S(=O)(Cc1ccccc1)N1CCC(c2nc(C3CC3)no2)C1 (stereo not given),875
17,COc1ccc(OC)c(S(=O)(=O)N2CCC(Cc3ncc(C)n3C3CC3)C2)c1 (stereo not given),656
18,CCOC(=O)c1c(NC(=O)C2CCN(S(C)(=O)=O)CC2)sc2ccccc12,979
19,c1ccc(-c2csc(Nc3ccccn3)n2)cc1,860
20,Cc1noc(C)c1C1CCCN1C(=O)Cc1cccc(Cl)c1 (stereo not given),810
21,COCCN(C)Cc1ccc(CC2CCN(C(=O)C3(c4ccc(OC)cc4)CC3)CC2)cc1,691
22,O=C1CCCN1Cc1noc(-c2ccccc2Cl)n1,770
23,Cc1cccc(NS(=O)(=O)c2cc3c(s2)CCN(C(=O)C2CC2)C3)c1C,858

row,SMILES,RP-LC retention time [s]
1,COc1ccc(S(=O)(=O)N2CC3CN(C(=O)C4CCCO4)CC(C2)O3)cc1 (stereo not given),659
2,O=C(CCC1CCCCC1)NC1CCN(c2ccc(=O)n(CC3CC3)n2)CC1,924
3,Cc1ccc(S(=O)(=O)CC(=O)Nc2nc(-c3cccc([N+](=O)[O-])c3)cs2)cc1,993
4,Cc1ccc(C)c(NC(=O)C2CCc3nc(N4CCOCC4)ncc3C2)c1 (stereo not given),753
5,CCCCNC(=O)C1CCN(c2nc3ccc(-c4cncnc4)nc3s2)CC1,788
6,COC(=O)CNC(=O)C1CN(C(=O)c2ccccc2)CC12CCCCC2 (stereo not given),731
7,COC(=O)N1CCN(CCNC(=O)c2cccc3ccccc23)CC1,542
8,CCc1cc(C(=O)Nc2cc(OC)cc(OC)c2)nc2cc(-c3ccco3)nn12,795
9,Cn1ncc(NC(=O)Cc2ccc(Cl)cc2)c(N2CCOCC2)c1=O,772
10,CCc1nnc(-c2ccc3ccn(CC(=O)N4CCN(c5cccc(Cl)c5)CC4)c3c2)o1,987
11,CCOC(=O)N1CCN(C(=O)Cn2c(-c3ccccn3)nc3ccccc32)CC1,643
12,c1ccc(-c2ccc(-c3nccc4ccccc34)[nH]2)cc1,806
13,Cc1ccc(Cl)cc1NC(=O)N1CCC(c2nc3ccncc3n2C(C)C)C1 (stereo not given),573
14,CCCC1=C(C(=O)OCC)C(c2ccccc2OC)NC(=O)N1 (stereo not given),797
15,O=C(c1c(F)cccc1F)N1CCN=C1N1CCN(c2cccc(Cl)c2)CC1,765
16,Cc1ccn2c(Nc3ccccc3C)c(-c3cccc(Br)c3)nc2c1,819
17,CCc1noc(NC(C)=O)c1-c1ccc(OC)c(S(=O)(=O)N2CCOCC2)c1,676
18,CC1(C(=O)NC2CCCCCCC2)CN(S(C)(=O)=O)CC(=O)N1Cc1ccc(Cl)cc1 (stereo not given),993
19,O=C(Nc1nc2ccccc2[nH]1)c1cccc(Cl)c1,703
20,Cc1cnc(C2CCC2)n1CC1CCN(C(=O)NC2CCCCC2)CC1,657
21,Cc1cc(Cl)ccc1NC(=O)Cn1cccc1-c1nnc(C2CC2)o1,904
22,COc1ccc(Cl)cc1NC(=O)N1CCC(OC2CCN(S(C)(=O)=O)CC2)CC1,811
